According to US20180303807A1, “ANDROGEN RECEPTOR LIGANDS” (DUKE UNIVERSITY, priority 2015, published 2018):

What was measured:
Format in all cases: cell-based
[1] = target: T1, AR (Homo sapiens, UniProt P10275); experiment: Reporter gene assay, AR transcriptional (MMTV-Luc) in CV1 cells; details: pcDNA-AR + MMTV-Luc, 0.1 nM R1881 plus test compound, 24 hrs, read-out: B1 = AR transcriptional IC50 (μM) in CV1 cells
T1 construct: expressed in transfected cells; host or cells: CV1 cells
T1 sequence (P10275 1-920): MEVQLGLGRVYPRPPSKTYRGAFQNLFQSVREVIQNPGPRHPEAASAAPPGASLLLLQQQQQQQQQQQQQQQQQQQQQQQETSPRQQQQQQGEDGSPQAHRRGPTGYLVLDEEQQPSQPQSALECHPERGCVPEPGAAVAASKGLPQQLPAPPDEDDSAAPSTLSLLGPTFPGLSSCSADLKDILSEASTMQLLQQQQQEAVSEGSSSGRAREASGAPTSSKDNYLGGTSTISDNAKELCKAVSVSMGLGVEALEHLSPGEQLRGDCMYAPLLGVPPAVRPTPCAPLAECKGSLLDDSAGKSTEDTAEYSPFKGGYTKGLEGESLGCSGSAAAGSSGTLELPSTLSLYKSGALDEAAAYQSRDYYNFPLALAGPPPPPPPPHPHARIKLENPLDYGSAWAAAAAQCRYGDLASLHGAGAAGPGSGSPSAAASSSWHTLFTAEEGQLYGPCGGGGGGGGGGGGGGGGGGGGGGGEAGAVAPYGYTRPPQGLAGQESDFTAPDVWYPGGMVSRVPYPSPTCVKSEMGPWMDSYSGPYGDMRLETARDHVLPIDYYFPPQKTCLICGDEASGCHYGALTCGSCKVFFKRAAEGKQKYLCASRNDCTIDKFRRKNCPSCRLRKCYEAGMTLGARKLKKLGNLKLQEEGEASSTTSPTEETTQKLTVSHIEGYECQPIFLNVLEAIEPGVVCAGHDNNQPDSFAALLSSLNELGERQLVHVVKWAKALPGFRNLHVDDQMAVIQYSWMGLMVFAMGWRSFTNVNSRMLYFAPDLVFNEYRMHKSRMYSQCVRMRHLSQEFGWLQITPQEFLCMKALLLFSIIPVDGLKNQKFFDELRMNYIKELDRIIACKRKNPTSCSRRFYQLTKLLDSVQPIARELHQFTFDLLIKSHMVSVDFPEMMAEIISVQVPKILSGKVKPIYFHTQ
Summary of the method: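 CV1 cells transiently co-transfected with human AR, MMTV-Luc reporter and Renilla-Luc (transfection efficiency and toxicity read-out), then stimulated 24 h with 0.1 nM R1881 plus increasing test compound concentrations. Firefly and Renilla luciferase quantified by dual-luciferase assay; IC50 derived from concentration-response.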

[2] = test system: CV1 cells; experiment: Toxicity of test compound in the CV1 reporter gene assay (Renilla-Luc)
Procedure: Reporter Gene Assay (IC50 determination, Table 2, B1-B3). CV1 cells were seeded into 96-well cell culture plates and transfected with Lipofectin. For AR transcriptional assays, the DNA mixture consisted of pcDNA-AR, MMTV-Luc (androgen responsive reporter gene), and Renilla-Luc (for assessing transfection efficiency and toxicity). Following overnight incubation, cells were induced with hormone (0.1 nM R1881 (synthetic AR agonist) plus increasing concentrations of test compound) for 24 hrs. Cells were lysed and luciferase activity was quantified using Dual Luciferase Reagent (DLR). IC50 determination was assessed using GraphPad Prism software.

[3] = test system: AR; experiment: Real-time PCR of AR target gene transcription in LNCaP-AR (AR overexpressing) cells, CRPC model; design: key to B5 = Relative antagonist activity (plus 0.1 nM R1881) of test compounds (20 μM) in AR overexpressing LNCaP cells (NKX3.1 AR target gene) / B7 = Relative antagonist activity (plus 0.1 nM R1881) of test compounds (20 μM) in AR overexpressing LNCaP cells (PSA AR target gene): a score of 1 indicates higher antagonist efficacy (highly desired activity) than benchmark compound enzalutamide; a score of 2 indicates equal antagonist efficacy to enzalutamide (desirable); a score of 3 indicates antagonist efficacy between enzalutamide and bicalutamide (less desirable activity); a score of 4 indicates antagonist efficacy equal to bicalutamide (liability); a score of 5 indicates antagonist efficacy worse than bicalutamide (liability); key to B4 = Relative agonist activity (no R1881) of test compounds (20 μM) in AR overexpressing LNCaP cells (NKX3.1 AR target gene) / B6 Relative agonist activity (no R1881) of test compounds (20 μM) in AR overexpressing LNCaP cells (PSA AR target gene): a score of 1 indicates less agonism (highly desired activity) than benchmark compound enzalutamide; a score of 2 indicates equal agonism to enzalutamide (desirable); a score of 3 indicates agonism between enzalutamide and bicalutamide (less desirable activity); a score of 4 indicates equal agonism to bicalutamide (liability); a score of 5 indicates higher agonism than bicalutamide (liability); details: 20 μM, score vs enzalutamide/bicalutamide; for B7 = Relative antagonist activity (plus 0.1 nM R1881) of test compounds (20 μM) in AR overexpressing LNCaP cells (PSA AR target gene): plus 0.1 nM R1881, PSA gene; for B4 = Relative agonist activity (no R1881) of test compounds (20 μM) in AR overexpressing LNCaP cells (NKX3.1 AR target gene): no R1881, NKX3.1 gene; for B5 = Relative antagonist activity (plus 0.1 nM R1881) of test compounds (20 μM) in AR overexpressing LNCaP cells (NKX3.1 AR target gene): plus 0.1 nM R1881, NKX3.1 gene
Procedure: Real-Time PCR (CRPC model of AR overexpressing prostate cancer cells, Table 2, B4-B7). LNCaP-AR (AR overexpressing cells) cells were seeded in 12-well plates in RPMI 1640 (8% charcoal-stripped fetal calf serum (CFS)). […] AR target gene transcription (PSA, NKX3.1, FKBP5) was assessed by realtime PCR.
For B4-B7, scoring system is based on the relative AR target gene agonist/antagonist activity of test compounds when compared to benchmark compounds enzalutamide or bicalutamide. […] The lack of agonist activity is desirable for therapies intended to treat CRPC. For B4 and B6, a score of 1 indicates less agonism (highly desired activity) than benchmark compound enzalutamide, a score of 2 indicates equal agonism to enzalutamide (desirable), a score of 3 indicates agonism between enzalutamide and bicalutamide (less desirable activity), a score of 4 indicates equal agonism to bicalutamide (liability), and a score of 5 indicates higher agonism than bicalutamide (liability). For B5 and B7 a score of 1 indicates higher antagonist efficacy (highly desired activity) than benchmark compound enzalutamide, a score of 2 indicates equal antagonist efficacy to enzalutamide (desirable), a score of 3 indicates antagonist efficacy between enzalutamide and bicalutamide (less desirable activity), a score of 4 indicates antagonist efficacy equal to bicalutamide (liability), and a score of 5 indicates antagonist efficacy worse than bicalutamide (liability) For B9, Compounds that degrade AR (greater than 50% degradation at 10 μM) are indicated.

Structure (SMILES)	IC50 [1] [µM]	B2 = % Toxicity of test compound (20 μM) [2] [%]	B3 = % Toxicity of test compound (60 μM) [2] [%]	B7 = Relative antagonist activity (plus 0.1 nM R1881) of test compounds (20 μM) in AR overexpressing LNCaP cells (PSA AR target gene) [3]	B4 = Relative agonist activity (no R1881) of test compounds (20 μM) in AR overexpressing LNCaP cells (NKX3.1 AR target gene) [3]	B6 Relative agonist activity (no R1881) of test compounds (20 μM) in AR overexpressing LNCaP cells (PSA AR target gene) [3]	B5 = Relative antagonist activity (plus 0.1 nM R1881) of test compounds (20 μM) in AR overexpressing LNCaP cells (NKX3.1 AR target gene) [3]
CC1(C)CC(=O)C2=C(C1)Nc1ccc3ncccc3c1C2c1ccc([N+](=O)[O-])cc1 (centres unmarked) [Compound A2, 9,9-dimethyl-12-(4-nitrophenyl)-8,9,10,12-tetrahydrobenzo[b][4,7]phenanthrolin-11(7H)-one]	0.2	0	51	1	–	–	–
CC1(C)CC(=O)C2=C(C1)Nc1ccc3ccccc3c1C2c1ccc(C#N)cc1 (centres unmarked) [Compound A3]	1.6	0	24	1	1	1	1
Cn1c(=O)n(C)c2cc(C3C4=C(CC(C)(C)CC4=O)Nc4ccc5ccccc5c43)ccc21 (centres unmarked) [Compound A8]	5.3	0	0	1	2	1	1
CC1(C)CC(=O)C2=C(C1)Nc1ccc3ccccc3c1C2c1cccc(C(F)(F)F)c1 (centres unmarked) [Compound A9]	5.5	0	0	1	1	1	1
O=C1CCCC2=C1C(c1ccc([N+](=O)[O-])cc1)c1c(ccc3ncccc13)N2 (centres unmarked) [Compound A18]	> 10	0	22	2	–	1	–
N#Cc1ccc(C2C3=C(CCCC3=O)Nc3ccc4ccccc4c32)cc1 (centres unmarked) [Compound A22]	> 10	0	66	3	–	3	–

Further compounds by falling IC50 [1], results first:

IC50 [1] [µM]	Structure (SMILES)	B2 = % Toxicity of test compound (20 μM) [2] [%]	B3 = % Toxicity of test compound (60 μM) [2] [%]	B7 = Relative antagonist activity (plus 0.1 nM R1881) of test compounds (20 μM) in AR overexpressing LNCaP cells (PSA AR target gene) [3]	B4 = Relative agonist activity (no R1881) of test compounds (20 μM) in AR overexpressing LNCaP cells (NKX3.1 AR target gene) [3]	B6 Relative agonist activity (no R1881) of test compounds (20 μM) in AR overexpressing LNCaP cells (PSA AR target gene) [3]	B5 = Relative antagonist activity (plus 0.1 nM R1881) of test compounds (20 μM) in AR overexpressing LNCaP cells (NKX3.1 AR target gene) [3]
8.6	CC1(C)CC(=O)C2=C(C1)Nc1ccc3ccccc3c1C2c1ccncc1 (centres unmarked) [Compound A12]	0	94	3	1	1	2
3.8	CC1(C)CC(=O)C2=C(C1)Nc1ccc3ccccc3c1C2c1ccc(Cl)c([N+](=O)[O-])c1 (centres unmarked) [Compound A6]	0	0	1	1	1	1
3.8	O=C1CCCC2=C1C(c1ccc(Cl)cc1Cl)c1c(ccc3ccccc13)N2 (centres unmarked) [Compound A7]	75	91	1	1	1	2
